Experimental data published in EP3483233A1, “LUBRICANT BASE OIL COMPOSITIONS OF MONO-UNSATURATED DIBASIC ACID ESTERS WITH BRANCHED ALCOHOLS” (ARKEMA FRANCE, priority 2017, dated 2019).

Experiments:
Type in all cases: physicochemical
[1] = Kinematic viscosity with capillary Cannon-Fenske viscometers; Viscosity Index calculated per ASTM D2270
Experimental: Kinematic viscosities at 40°C and 100°C were measured using capillary Cannon-Fenske viscometers per ASTM […]. Viscosity Index (the value, describing the rate of thinning with increasing temperature) was calculated per ASTM D2270.

[2] = Pour point and cloud point, cooling regime of ASTM D97
Experimental: Pour points and cloud points were determined using the same thermal cooling regime, as instructed by ASTM D97. The sample sizes were 5 to 15 mL during the measurements.
Cloud points were determined during the same run by visual inspection of the sample appearance at low temperature. The samples were removed from the freezer every 3°C for visual inspection and, if cloudy, meniscus movement with inversion. The pour point resembled the last measurement, at which the meniscus boundary was still moving within 5 seconds of horizontal inversion. All samples were tested in duplicate.
In engine oils and hydraulic fluids, low temperature fluidity is primarily determined by pour points [ASTM D97]. Generally, pour points below -30°C are considered sufficient. Some polymer additives, e.g. "Pour Point Depressants" (PPD), are able to improve low temperature fluidity. […] Therefore, initially pour points and cloud points [ASTM D2500 "Standard Test Method for Cloud Point of Petroleum Products and Liquid Fuels"] of α-ω dibasic esters were evaluated and shown in Table 4.

[3] = Thin film test, volatile losses (500 µm oil film on steel coupon, forced-draft oven, gravimetric)
Text: (§1) The exact procedure, used here, has been described in detail by Stoncius, A. et al. in "Volatiles from Thin Film Degradation of Bio-based, Synthetic and Mineral Basestocks", published in Industrial Lubrication & Tribology, 2013, 65 (3) 209-215, 2013, Emerald Group Publishing Edition or by Brazinskiene, D. et al. in "Ester Basestock Vaporisation from Thin Oil Films", published in Lubrication Science, DOI: 10.1002/ls.1372, pp 1-17, 2017, Wiley Edition.
(§2) Briefly, an oil film of 500 µm thickness was coated on steel coupon and heated at given temperature for specific duration in a forced-draft oven. Afterwards, the volatile losses and insoluble residues were measured gravimetrically.
As discussed in the prior-art review, volatility can be successfully evaluated in a thin film test as described by Stoncius, A. et al. in "Volatiles from Thin Film Degradation of Bio-based, Synthetic and Mineral Basestocks" published in Industrial Lubrication & Tribology, 2013, 65 (3) 209-215, Emerald Group Publishing Edition or by Brazinskiene, D. et al. in "Ester Basestock Vaporisation from Thin Oil Films" published in Lubrication Science, DOI: 10.1002/ls.1372, pp 1-17, 2017, Wiley Edition. This thin-film method is much better suited for hydraulic fluid applications than NOACK or other tests, which employ 250°C or similar temperatures, related to engine oil applications. Also, the above method accounts for longer term decomposition reactions due to exposure to metal surfaces and oxidation, which is prevalent in hydraulic applications. Therefore, using the thin-film method short-term vapor losses were measured after 16 hrs and decomposition trends were compared after 36 hrs of testing. Heating temperature of 120°C was selected to compare thin films of α,ω dibasic esters with commercial basestocks. Table 5. Volatile emissions, % w/w from 500 µm thick films of α-ω dibasic esters and commercial basestocks at 120°C

[4] = Thin film test, oxidative stability (time to insoluble residues and to solidification); conditions: 500 µm thick films at 120°C
Text: as §1, §2
Therefore, thin films of commercial basestocks and α-ω dibasic esters were compared by exposing their thin films to 120°C as described by Stoncius, A. et al. in "Volatiles from Thin Film Degradation of Bio-based, Synthetic and Mineral Basestocks" published in Industrial Lubrication & Tribology, 2013, 65 (3), 209-215, Emerald Group Publishing Edition or by Brazinskiene, D. et al. in "Ester Basestock Vaporisation from Thin Oil Films" published in Lubrication Science, DOI: 10.1002/ls.1372, pp 1-17, 2017, Wiley Edition.
The thin-film method determines how resistant oil is against formation of insoluble residues during oxidation. Degradation durations until initial formation of solid residues and complete solidification directly relate to oxidative stability.

[5] = Solubility of lubricant additives in the basestocks
Experimental: Several typical lubricant additives have been tested for solubility in α-ω dibasic esters of 2-ethyl hexanol 26U18 and 26S12 as well as commercial basestock 350N. The additives were mixed in at temperatures of 50°C or lower and held for longer than a week at room temperature. Table 7. Solubility of lubricant additives, dissolved in α-ω dibasic esters and commercial basestocks
The additives were selected to represent different chemical categories: soaps, heterocycles, phosphorous derivatives, polymers, etc. Most of these additives are designed to be dissolved in paraffinic mineral oils and synthetic lubricants with some heating. It is often thought that esters are better solvents than mineral oils or synthetic hydrocarbons like poly α-olefins. Therefore, the tested concentrations were much higher than additive proportions for hydraulic fluids, as recommended by the additive manufacturers.

Viscosity Index ([1]; calculated per ASTM D2270 from viscosities at 40°C and 100°C): 147
Viscosity, mm^2/s at 40°C ([1]; kinematic viscosity at 40°C): 14.72 mm^2/s
Viscosity, mm^2/s at 100°C ([1]; kinematic viscosity at 100°C): 3.72 mm^2/s
Pour point, °C [2]: -48 °C
Cloud point, °C ([2]; visual inspection during the same run): -30 °C
Volatile emissions, 16 hrs ([3]; 500 µm thick films at 120°C, 16 hrs): 0.8 % w/w
Volatile emissions, 36 hrs ([3]; 500 µm thick films at 120°C, 36 hrs): 1.75 % w/w
volatility ([3]; result in words, thin films at 120°C): much lower volatility
Full solidification observed [4]: 655 h
Initial residues observed [4]: 583 h
Vapor loss at solidification ([4]; at the duration of full film solidification): 86% w/w
Solubility of 1% w/w Vanlube 7723 ([5]; Alkyl dithiocarbamate, mixed in at 50°C or lower, held longer than a week at room temperature): soluble
Solubility of 1% w/w Irgalube ML605A ([5]; Amine and phosphate derivatives, mixed in at 50°C or lower, held longer than a week at room temperature): soluble
Solubility of 1% w/w Vanlube 7611 M ([5]; Phosphoro dithioate, mixed in at 50°C or lower, held longer than a week at room temperature): soluble
Solubility of 5% w/w Viscoplex 10-310 ([5]; Poly alkyl methacrylate, mixed in at 50°C or lower, held longer than a week at room temperature): soluble
Solubility of 2% w/w Vanlube RI- A ([5]; Soap and ester derivatives, mixed in at 50°C or lower, held longer than a week at room temperature): soluble
Solubility of 1% w/w Cobratec TT-100 ([5]; Tolyl triazole, mixed in at 50°C or lower, held longer than a week at room temperature): soluble
Initial solution appearance ([5]; all tested additives blended in, unchanged after 1 week at room temperature): bright and clear
Substance: 1,12-di(2-ethylhexyl) dodecanedioate [26S12, reference compound]
